Laboratory results from patent US9815831B2, “3,5-disubstituted-3H-imidazo[4,5-B]pyridine and 3,5-disubstituted-3H-[1,2,3]triazolo[4,5-B] pyridine compounds as modulators of c-Met protein kinases” (Rhizen Pharmaceuticals SA, priority 2012, dated 2017).
Like-named read-outs stand apart in the source and are kept apart here.

How the values were obtained:
[1] = target: T1, human recombinant Met kinase (Homo sapiens, UniProt P08581); experiment: Colorimetric determination of c-Met kinase activity (HTScan Met Kinase Assay Kit); format: biochemical; settings: for inhibition at 0.1 µM: 100 nM (cells without *), read-out: c-Met Enzyme % inhibition @ 100 nM; for inhibition: cells marked *: tested @ 300 nM, read-out: c-Met Enzyme % inhibition
T1 construct: purchased Cell Signalling Technology, Beverly, Mass
T1 sequence (P08581 25-1390): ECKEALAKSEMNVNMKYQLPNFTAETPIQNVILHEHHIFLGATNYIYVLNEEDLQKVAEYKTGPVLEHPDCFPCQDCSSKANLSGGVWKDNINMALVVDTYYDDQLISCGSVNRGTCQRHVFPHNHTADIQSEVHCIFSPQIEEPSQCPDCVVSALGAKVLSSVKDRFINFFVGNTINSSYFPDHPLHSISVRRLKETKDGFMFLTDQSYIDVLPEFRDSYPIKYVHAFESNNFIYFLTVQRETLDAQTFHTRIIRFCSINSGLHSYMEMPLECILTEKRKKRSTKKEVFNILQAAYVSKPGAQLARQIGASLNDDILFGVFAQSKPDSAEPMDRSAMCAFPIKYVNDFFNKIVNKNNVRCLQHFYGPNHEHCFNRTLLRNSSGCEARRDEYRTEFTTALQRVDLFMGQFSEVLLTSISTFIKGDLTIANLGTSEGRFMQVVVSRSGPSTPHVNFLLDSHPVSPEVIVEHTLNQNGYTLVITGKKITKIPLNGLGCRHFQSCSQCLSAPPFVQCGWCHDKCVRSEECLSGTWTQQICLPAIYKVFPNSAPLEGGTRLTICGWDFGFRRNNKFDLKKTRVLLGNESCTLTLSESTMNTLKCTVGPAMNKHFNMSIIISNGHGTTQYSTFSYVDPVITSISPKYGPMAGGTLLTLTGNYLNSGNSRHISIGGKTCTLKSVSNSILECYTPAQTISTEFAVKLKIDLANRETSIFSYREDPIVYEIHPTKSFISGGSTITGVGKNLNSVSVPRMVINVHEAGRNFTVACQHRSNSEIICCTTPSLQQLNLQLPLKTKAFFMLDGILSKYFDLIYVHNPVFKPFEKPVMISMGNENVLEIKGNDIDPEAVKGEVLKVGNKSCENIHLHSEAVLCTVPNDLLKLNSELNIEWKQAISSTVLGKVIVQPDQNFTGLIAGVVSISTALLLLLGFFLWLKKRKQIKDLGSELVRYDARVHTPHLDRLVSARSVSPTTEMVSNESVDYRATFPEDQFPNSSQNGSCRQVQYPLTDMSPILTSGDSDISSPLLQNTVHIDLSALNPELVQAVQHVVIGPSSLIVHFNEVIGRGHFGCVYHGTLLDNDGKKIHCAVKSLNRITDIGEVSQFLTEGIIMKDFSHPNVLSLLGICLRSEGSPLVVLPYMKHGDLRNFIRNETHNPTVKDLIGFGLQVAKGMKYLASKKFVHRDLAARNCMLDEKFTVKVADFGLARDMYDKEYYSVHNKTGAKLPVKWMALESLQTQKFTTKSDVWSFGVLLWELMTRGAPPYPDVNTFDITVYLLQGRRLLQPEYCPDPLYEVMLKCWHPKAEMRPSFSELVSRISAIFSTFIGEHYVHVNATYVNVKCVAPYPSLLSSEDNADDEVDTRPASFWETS
How it was run: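 Human recombinant Met kinase was preincubated with compound for 5 min at room temperature, then reacted with ATP and biotinylated peptide for 30 min; EDTA stop. Phosphopeptide captured on streptavidin and detected with phospho-tyrosine mAb and europium anti-mouse IgG by time-resolved fluorescence (340/615 nm). Reported as % inhibition or IC50.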

MKN-45 = experiment: Inhibition of MKN-45 proliferation (MTT); format: cell-based, human; settings: Homo sapiens, MKN-45 proliferation; for inhibition at 0.1 µM: 100 nM, read-out: MKN45 % inhibition @ 100 nM; for GI50: read-out: MKN45 GI50
How it was run: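 High-Met human gastric adenocarcinoma MKN-45 cells plated on day 1 and exposed to compound from day 2. Viability measured by MTT dye reduction on day 5; output given as % inhibition at 100 nM and GI50.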

[2] = target: T1, human recombinant Met kinase; experiment: Colorimetric determination of c-Met kinase activity (HTScan Met Kinase Assay Kit); format: biochemical; settings: read-out: c-Met Enzyme IC50

Cc1cc(-c2ccc3nnn(Cc4ccc5c(ccc[n+]5[O-])c4)c3n2)ccc1C(=O)NOCC(C)(C)O [Example 41, N-(2-Hydroxy-2-methyl-propoxy)-2-methyl-4-[3-(1-oxy-quinolin-6-ylmethyl)-3H-[1,2,3]triazolo[4,5-b]pyridin-5-yl]-benzamide]
melting point: 160 to 162 °C

C[C@@H](O)CNC(=O)c1ccc(-c2ccc3ncn(Cc4ccc5ncccc5c4)c3n2)cc1F [Example 109, (R)-2-fluoro-N-(2-hydroxypropyl)-4-(3-(quinolin-6-ylmethyl)-3H-imidazo[4,5-b]pyridin-5-yl)benzamide]
melting point: 151 to 158 °C
inhibition at 0.1 µM ([1]; Table 4B): 75 to 100%

Cc1ccc2cc(Cn3nnc4ccc(-c5ccc(C(=O)NOCCO)c(Cl)c5)nc43)ccc2n1 [Example 17, 2-chloro-N-(2-hydroxyethoxy)-4-(3-((2-methylquinolin-6-yl)methyl)-3H-[1,2,3]triazolo[4,5-b]pyridin-5-yl) benzamide]
melting point: 219 to 222 °C
inhibition at 0.1 µM ([1]; Table 4A): < 25%

NC(=O)c1ccc(-c2ccc3ncn(Cc4c(F)cc5ncccc5c4F)c3n2)cc1Cl [Example 1023, 2-chloro-4-(3-((5,7-difluoroquinolin-6-yl)methyl)-3H-imidazo[4,5-b]pyridin-5-yl)benzamide]
inhibition at 0.1 µM (MKN-45; MKN-45, Table 4C): 50 to 75%
GI50 (MKN-45; MKN-45, Table 4C): < 25 nM
IC50 ([2]; Table 4C): < 25 nM
inhibition ([1]; Table 4C): 75 to 100%

CN(C)CCNC(=O)c1c(F)cc(-c2ccc3ncn(Cc4ccc5ncccc5c4)c3n2)cc1F [Example 104, N-(2-(dimethylamino)ethyl)-2,6-difluoro-4-(3-(quinolin-6-ylmethyl)-3H-imidazo[4,5-b]pyridin-5-yl) benzamide]
inhibition at 0.1 µM (MKN-45; MKN-45, Table 4B): < 25%
IC50 ([2]; Table 4B): 100 to 250 nM
inhibition ([1]; Table 4B): 50 to 75%

NC(=O)c1c(F)cc(-c2ccc3nnn(Cc4ccc5ncccc5c4)c3n2)cc1F [Example 1003, 2,6-difluoro-4-(3-(quinolin-6-ylmethyl)-3H-[1,2,3]triazolo[4,5-b]pyridin-5-yl)benzamide 2,2,2-trifluoroacetate]
IC50 ([2]; Table 4C): < 25 nM
inhibition ([1]; Table 4C): 75 to 100%

C[C@H](N)C(=O)OCCONC(=O)c1ccc(-c2ccc3nnn(Cc4ccc5ncccc5c4)c3n2)cc1Cl [Example 13, (S)-2-(2-chloro-4-(3-(quinolin-6-ylmethyl)-3H-[1,2,3]triazolo[4,5-b]pyridin-5-yl)benzamidooxy)ethyl 2-aminopropanoate]
melting point: 175 to 177 °C
inhibition at 0.1 µM ([1]; Table 4A): 75 to 100%

CNC(=O)c1ccc(-c2ccc3ncn(Cc4ccc5ncccc5c4)c3n2)cc1C [Example 1030, 2,N-Dimethyl-4-(3-quinolin-6-ylmethyl-3H-imidazo[4,5-b]pyridin-5-yl)-benzamide]
melting point: 118 to 120 °C
inhibition at 0.1 µM ([1]; Table 4C): < 25%

CC(C)(CO)ONC(=O)c1ccc(-c2ccc3nnn(Cc4ccc5ncccc5c4)c3n2)cc1Cl [Example 40, 2-chloro-N-(1-hydroxy-2-methylpropan-2-yloxy)-4-(3-(quinolin-6-ylmethyl)-3H-[1,2,3]triazolo[4,5-b]pyridin-5-yl)benzamide]
melting point: 148 to 150 °C
inhibition at 0.1 µM ([1]; Table 4A): 75 to 100%

C/C(=N\OCCO)c1ccc2nnn(Cc3cc4cccnc4cc3F)c2n1 [Example 61, 1-(3-((7-fluoroquinolin-6-yl)methyl)-3H-[1,2,3]triazolo[4,5-b]pyridin-5-yl) ethanone O-2-hydroxyethyl oxime]
GI50 (MKN-45; MKN-45, Table 4A): 50 to 100 nM
IC50 ([2]; Table 4A): 25 to 50 nM
inhibition ([1]; Table 4A): 75 to 100%

C/C(=N\NC(N)=S)c1ccc2nnn(Cc3ccc4ncccc4c3)c2n1 [Example 50, 2-(1-(3-(quinolin-6-ylmethyl)-3H-[1,2,3]triazolo[4,5-b]pyridin-5-yl)ethylidene)hydrazinecarbothioamide]
inhibition at 0.1 µM (MKN-45; MKN-45, Table 4A): 75 to 100%
GI50 (MKN-45; MKN-45, Table 4A): 25 to 50 nM
IC50 ([2]; Table 4A): 25 to 50 nM
inhibition ([1]; Table 4A): 75 to 100%

CC(=O)OCCONC(=O)c1ccc(-c2ccc3nnn(Cc4ccc5ncccc5c4)c3n2)cc1Cl [Example 11, 2-(2-chloro-4-(3-(quinolin-6-ylmethyl)-3H-[1,2,3]triazolo[4,5-b]pyridin-5-yl)benzamidooxy)ethyl acetate]
melting point: 168 to 170 °C
inhibition at 0.1 µM ([1]; Table 4A): 75 to 100%

NC(=O)c1ccc(-c2ccc3ncn(Cc4cc5cccnc5cc4F)c3n2)cc1Cl [Example 1022, 2-chloro-4-(3-((7-fluoroquinolin-6-yl)methyl)-3H-imidazo[4,5-b]pyridin-5-yl)benzamide]
inhibition at 0.1 µM (MKN-45; MKN-45, Table 4C): 50 to 75%
GI50 (MKN-45; MKN-45, Table 4C): 50 to 100 nM
IC50 ([2]; Table 4C): < 25 nM

NC(=O)c1ccc(-c2ccc3ncn(Cc4cc5cccnc5cc4F)c3n2)cc1C(F)(F)F [Example 1026, 4-[3-(7-Fluoro-quinolin-6-ylmethyl)-3H-imidazo[4,5-b]pyridin-5-yl]-2-trifluoromethyl-benzamide]
melting point: 239 to 241 °C
inhibition at 0.1 µM ([1]; Table 4C): 25 to 50%

Cc1cc(-c2ccc3ncn(Cc4c(F)cc5ncccc5c4F)c3n2)ccc1C(N)=O [Example 1027, 4-[3-(5,7-Difluoro-quinolin-6-ylmethyl)-3H-imidazo[4,5-b]pyridin-5-yl]-2-methyl-benzamide]
inhibition at 0.1 µM (MKN-45; MKN-45, Table 4C): 75 to 100%
melting point: 158 to 160 °C
inhibition at 0.1 µM ([1]; Table 4C): 75 to 100%

C[C@H](O)CNC(=O)c1ccc(-c2ccc3ncn(Cc4ccc5ncccc5c4)c3n2)cc1F [Example 110, (S)-2-fluoro-N-(2-hydroxypropyl)-4-(3-(quinolin-6-ylmethyl)-3H-imidazo[4,5-b]pyridin-5-yl)benzamide]
melting point: 166 to 169 °C
inhibition at 0.1 µM ([1]; Table 4B): 75 to 100%

C/C(=N\OCCN)c1ccc2nnn(Cc3ccc4ncccc4c3)c2n1 [Example 63, 1-(3-(quinolin-6-ylmethyl)-3H-[1,2,3]triazolo[4,5-b]pyridin-5-yl)ethanone O-2-aminoethyl oxime]
inhibition at 0.1 µM (MKN-45; MKN-45, Table 4A): < 25%
GI50 (MKN-45; MKN-45, Table 4A): 250 to 1000 nM
IC50 ([2]; Table 4A): 25 to 50 nM
inhibition ([1]; Table 4A): 75 to 100%

O=C(CNC(=O)c1ccccc1)OCCONC(=O)c1ccc(-c2ccc3nnn(Cc4ccc5ncccc5c4)c3n2)cc1Cl [Example 16, 2-(2-chloro-4-(3-(quinolin-6-ylmethyl)-3H-[1,2,3]triazolo[4,5-b]pyridin-5-yl)benzamidooxy)ethyl 2-benzamidoacetate]
melting point: 110 to 112 °C
inhibition at 0.1 µM ([1]; Table 4A): 75 to 100%

Cc1cc(-c2ccc3ncn(Cc4cc5cccnc5cc4F)c3n2)ccc1C(N)=O [Example 1025, 4-[3-(7-Fluoro-quinolin-6-ylmethyl)-3H-imidazo[4,5-b]pyridin-5-yl]-2-methyl-benzamide]
GI50 (MKN-45; MKN-45, Table 4C): 50 to 100 nM
IC50 ([2]; Table 4C): < 25 nM
inhibition at 0.1 µM ([1]; Table 4C): 75 to 100%

CNC(=O)c1ccc(-c2ccc3ncn(Cc4ccc5ncccc5c4)c3n2)cn1 [Example 1031, 5-(3-Quinolin-6-ylmethyl-3H-imidazo[4,5-b]pyridin-5-yl)-pyridine-2-carboxylic acid methylamide]
melting point: 219 to 221 °C
inhibition at 0.1 µM ([1]; Table 4C): < 25%

CC(C)(C)C(=O)OCCONC(=O)c1ccc(-c2ccc3nnn(Cc4ccc5ncccc5c4)c3n2)cc1Cl [Example 14, 2-(2-chloro-4-(3-(quinolin-6-ylmethyl)-3H-[1,2,3]triazolo[4,5-b]pyridin-5-yl)benzamidooxy)ethyl pivalate]
melting point: 130 to 133 °C
inhibition at 0.1 µM ([1]; Table 4A): 75 to 100%

CON=C(C)c1ccc2nnn(Cc3cc4cccnc4cc3F)c2n1 (racemic) [Example 60, 1-(3-((7-fluoroquinolin-6-yl)methyl)-3H-[1,2,3]triazolo[4,5-b]pyridin-5-yl) ethanone O-methyl oxime]
GI50 (MKN-45; MKN-45, Table 4A): 50 to 100 nM
IC50 ([2]; Table 4A): 25 to 50 nM
inhibition ([1]; Table 4A): 75 to 100%

NC(=O)c1c(F)cc(-c2ccc3nnn(Cc4cc5cccnc5cc4F)c3n2)cc1F [Example 1007, 2,6-difluoro-4-(3-((7-fluoroquinolin-6-yl)methyl)-3H-[1,2,3]triazolo[4,5-b]pyridin-5-yl)benzamide]
inhibition at 0.1 µM (MKN-45; MKN-45, Table 4C): 75 to 100%
GI50 (MKN-45; MKN-45, Table 4C): < 25 nM
IC50 ([2]; Table 4C): < 25 nM

CC(C)C(=O)OCCONC(=O)c1ccc(-c2ccc3nnn(Cc4ccc5ncccc5c4)c3n2)cc1Cl [Example 15, 2-(2-chloro-4-(3-(quinolin-6-ylmethyl)-3H-[1,2,3]triazolo[4,5-b]pyridin-5-yl)benzamidooxy)ethyl isobutyrate]
melting point: 115 to 118 °C
inhibition at 0.1 µM ([1]; Table 4A): 75 to 100%

C/C(=N\NC(N)=S)c1ccc2nnn(Cc3cc4cccnc4cc3F)c2n1 [Example 57, 2-(1-(3-((7-fluoroquinolin-6-yl)methyl)-3H-[1,2,3]triazolo[4,5-b]pyridin-5-yl)ethylidene)hydrazinecarbothioamide]
inhibition at 0.1 µM (MKN-45; MKN-45, Table 4A): 50 to 75%
GI50 (MKN-45; MKN-45, Table 4A): 25 to 50 nM
IC50 ([2]; Table 4A): 25 to 50 nM
inhibition ([1]; Table 4A): 75 to 100%

NC(=O)c1ccc(-c2ccc3ncn(Cc4ccc5ncccc5c4)c3n2)cc1Cl [Example 1008, 2-Chloro-4-(3-(quinolin-6-ylmethyl)-3H-imidazo[4,5-b]pyridin-5-yl)benzamide]
inhibition at 0.1 µM (MKN-45; MKN-45, Table 4C): 25 to 50%
GI50 (MKN-45; MKN-45, Table 4C): 100 to 250 nM
IC50 ([2]; Table 4C): 50 to 100 nM
inhibition ([1]; Table 4C): 75 to 100%
